Laboratory results: patent publication US6350477B1, “Food material containing antioxidant ingredient derived from citrus fruits” (Pokka Corporation, priority 1998, dated 2002)

How the values were obtained:
[1] = Mutagenicity test according to Rec-assay; format: cell-based
Method: (§1) Eriocitrin is an ingredient derived from natural products, and it is contained in a juice of citrus fruits such as lemon and lime which have been already eaten in a large amount of several tens of milligrams per 100 ml. There is no problem with a safety to humans. It is negative in the mutagenicity test according to Rec-assay or Ames assay. Thus, the safety has been identified.

[2] = Mutagenicity test according to Ames assay; format: cell-based
Method: as §1

SMILES: C[C@@H]1O[C@@H](OC[C@H]2O[C@@H](Oc3cc(O)c4c(c3)O[C@H](c3ccc(O)c(O)c3)CC4=O)[C@H](O)[C@@H](O)[C@@H]2O)[C@H](O)[C@H](O)[C@H]1O [Eriocitrin, eriodictyol-7-rutinoside]
- mutagenicity test according to Rec-assay [1]: negative
- mutagenicity test according to Ames assay [2]: negative
